System: Plasmodium falciparum 3D7
Test: P. falciparum 3D7 asexual blood stage assay, Assay Procedure Version 2 (SYBR green readout)
Type: cell-based
Details: Plasmodium falciparum, 3D7, Erythrocyte, 72 h, Version 2 of the assay procedure (asterisk *); 72 h incubation in infected erythrocytes; 50,000 nM to 15 nM
Method in brief: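 Parasite growth read as DNA fluorescence (SYBR green lysis overnight, ex 485/em 528 nm) after 72 h drug exposure of 3D7-infected erythrocytes at 0.5% parasitaemia, 5% haematocrit, 37 °C under 1% O2/3% CO2. Compounds tested 15–50,000 nM final, 0.5% DMSO; normalised to mefloquine (100%) and DMSO (0%), biphasic two-site EC50 fitting.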

SMILES	IC50
C[C@@]1(c2cccc(Nc3ccc(Cl)cc3S(C)(=O)=O)c2Cl)CC(=O)N(C2CCOCC2)C(=N)N1 [Example 118, (6S)-6-{2-Chloro-3-[4-chloro-2-(methylsulfonyl)anilino]-phenyl}-2-imino-6-methyl-3-(tetrahydropyran-4-yl)-hexahydropyrimidin-4-one]	0.138 µM
C[C@@]1(c2cccc(Nc3ccc(CC(F)(F)F)nc3)c2Cl)CC(=O)N(C2CCOCC2)C(=N)N1 [Example 119, (6S)-6-(2-Chloro-3-{[6-(2,2,2-trifluoroethyl)pyridin-3-yl]-amino}phenyl)-2-imino-6-methyl-3-(tetrahydropyran-4-yl)hexahydropyrimidin-4-one]	0.237 µM
C[C@@]1(c2cccc(Nc3ccc(C#N)nc3)c2Cl)CC(=O)N([C@H]2C[C@@](C)(O)C2)C(=N)N1 [Example 122, 5-{2-Chloro-3-[(4S)-1-(3-hydroxy-3-methylcyclobutyl)-2-imino-4-methyl-6-oxo-hexahydropyrimidin-4-yl]-anilino}pyridine-2-carbonitrile]	4.51 µM
C[C@@]1(c2cccc(Nc3ccc(C#N)cc3)c2Cl)CC(=O)N([C@H]2C[C@@](C)(O)C2)C(=N)N1 [Example 123, 4-{2-Chloro-3-[(4S)-1-(3-hydroxy-3-methylcyclobutyl)-2-imino-4-methyl-6-oxo-hexahydropyrimidin-4-yl]-anilino}benzonitrile]	0.552 µM
C[C@@]1(c2cccc(Nc3ccc(C(F)(F)F)nc3)c2Cl)CC(=O)N([C@H]2C[C@@](C)(O)C2)C(=N)N1 [Example 124, (6S)-6-(2-Chloro-3-{[6-(trifluoromethyl)pyridin-3-yl]-amino}phenyl)-3-(3-hydroxy-3-methylcyclobutyl)-2-imino-6-methylhexahydropyrimidin-4-one]	0.509 µM
Cc1ccc(Nc2cccc([C@]3(C)CC(=O)N([C@H]4C[C@@](C)(O)C4)C(=N)N3)c2Cl)cn1 [Example 125, (6S)-6-{2-Chloro-3-[(6-methyl-pyridin-3-yl)amino]phenyl}-3-(3-hydroxy-3-methylcyclo-butyl)-2-imino-6-methyl-hexahydropyrimidin-4-one]	1.1 µM
C[C@@]1(c2cccc(Nc3ccc(F)cn3)c2Cl)CC(=O)N([C@H]2C[C@@](C)(O)C2)C(=N)N1 [Example 126, (6S)-6-{2-Chloro-3-[(5-fluoro-pyridin-2-yl)amino]phenyl}-3-(3-hydroxy-3-methylcyclo-butyl)-2-imino-6-methyl-hexahydropyrimidin-4-one]	1.75 µM
C[C@@]1(c2cccc(Nc3ccc(F)cc3C#N)c2Cl)CC(=O)N([C@H]2C[C@@](C)(O)C2)C(=N)N1 [Example 127, 2-{2-Chloro-3-[(4S)-1-(3-hydroxy-3-methylcyclobutyl)-2-imino-4-methyl-6-oxo-hexahydropyrimidin-4-yl]-anilino}-5-fluorobenzonitrile]	0.184 µM
C[C@@]1(c2cccc(Nc3ccc(OC(F)F)nc3)c2Cl)CC(=O)N([C@H]2C[C@@](C)(O)C2)C(=N)N1 [Example 128, (6S)-6-(2-Chloro-3-{[6-(difluoromethoxy)pyridin-3-yl]-amino}phenyl)-3-(3-hydroxy-3-methylcyclobutyl)-2-imino-6-methylhexahydropyrimidin-4-one]	0.717 µM
Cc1cnc(Nc2cccc([C@]3(C)CC(=O)N([C@H]4C[C@@](C)(O)C4)C(=N)N3)c2Cl)cn1 [Example 129, (6S)-6-{2-Chloro-3-[(5-methyl-pyrazin-2-yl)amino]phenyl}-3-(3-hydroxy-3-methylcyclo-butyl)-2-imino-6-methyl-hexahydropyrimidin-4-one]	1.33 µM
C[C@@]1(c2cccc(Nc3ccc(OC(F)(F)F)nc3)c2Cl)CC(=O)N([C@H]2C[C@@](C)(O)C2)C(=N)N1 [Example 130, (6S)-6-(2-Chloro-3-{[6-(trifluoromethoxy)pyridin-3-yl]-amino}phenyl)-3-(3-hydroxy-3-methylcyclobutyl)-2-imino-6-methylhexahydropyrimidin-4-one]	0.744 µM
C[C@@]1(c2cccc(Nc3ccnc(C(F)(F)F)c3)c2Cl)CC(=O)N([C@H]2C[C@@](C)(O)C2)C(=N)N1 [Example 131, (6S)-6-(2-Chloro-3-{[2-(trifluoromethyl)pyridin-4-yl]amino}phenyl)-3-(3-hydroxy-3-methylcyclobutyl)-2-imino-6-methylhexahydropyrimidin-4-one]	18.3 µM
C[C@@]1(c2cccc(Nc3ccn4nccc4c3)c2Cl)CC(=O)N([C@H]2C[C@@](C)(O)C2)C(=N)N1 [Example 132, (6S)-6-[2-Chloro-3-(pyrazolo-[1,5-a]pyridin-5-ylamino)-phenyl]-3-(3-hydroxy-3-methyl-cyclobutyl)-2-imino-6-methyl-hexahydropyrimidin-4-one]	0.623 µM
C[C@@]1(c2cccc(Nc3ccc(C#N)cc3OC(F)F)c2Cl)CC(=O)N([C@H]2C[C@@](C)(O)C2)C(=N)N1 [Example 133, 4-{2-Chloro-3-[(4S)-1-(3-hydroxy-3-methylcyclobutyl)-2-imino-4-methyl-6-oxo-hexahydropyrimidin-4-yl]-anilino}-3-(difluoromethoxy)-benzonitrile]	0.562 µM
Cc1ccc(Nc2cccc([C@]3(C)CC(=O)N([C@H]4C[C@](O)(C(C)C)C4)C(=N)N3)c2Cl)cn1 [Example 134, (6S)-6-{2-Chloro-3-[(6-methyl-pyridin-3-yl)amino]phenyl}-3-(3-hydroxy-3-isopropylcyclo-butyl)-2-imino-6-methyl-hexahydropyrimidin-4-one]	3.97 µM
Cc1ccc(Nc2cccc([C@]3(C)CC(=O)N(C4CCC(F)(F)CC4)C(=N)N3)c2Cl)cn1 [Example 139, (6S)-6-{2-Chloro-3-[(6-methyl-pyridin-3-yl)amino]phenyl}-3-(4,4-difluorocyclohexyl)-2-imino-6-methylhexahydro-pyrimidin-4-one]	0.132 µM
C[C@@]1(c2cccc(Nc3ccc(OC(F)F)nc3)c2Cl)CC(=O)N(C2CCC(F)(F)CC2)C(=N)N1 [Example 140, (6S)-6-(2-Chloro-3-{[6-(difluoromethoxy)pyridin-3-yl]-amino}phenyl)-3-(4,4-difluoro-cyclohexyl)-2-imino-6-methyl-hexahydropyrimidin-4-one]	0.704 µM

Continued, values first:

IC50	SMILES
0.18 µM	CC(C)(C)c1ncc(Nc2cccc([C@]3(C)CC(=O)N(C4CCC(F)(F)CC4)C(=N)N3)c2Cl)cn1 [Example 141, (6S)-6-{3-[(2-tert-Butyl-pyrimidin-5-yl)amino]-2-chloro-phenyl]-3-(4,4-difluoro-cyclohexyl)-2-imino-6-methyl-hexahydropyrimidin-4-one]
0.232 µM	C[C@@]1(c2cccc(Nc3ccc(C4CC4)nc3)c2Cl)CC(=O)N(C2CCC(F)(F)CC2)C(=N)N1 [Example 142, (6S)-6-{2-Chloro-3-[(6-cyclo-propylpyridin-3-yl)amino]-phenyl}-3-(4,4-difluoro-cyclohexyl)-2-imino-6-methyl-hexahydropyrimidin-4-one]
0.613 µM	Cc1ccc(Nc2cccc([C@]3(C)CC(=O)N([C@H]4C[C@](O)(C(F)(F)F)C4)C(=N)N3)c2Cl)cn1 [Example 152, (6S)-6-{2-Chloro-3-[(6-methyl-pyridin-3-yl)amino]phenyl}-3-[3-hydroxy-3-(trifluoromethyl)-cyclobutyl]-2-imino-6-methyl-hexahydropyrimidin-4-one (cis isomer)]
3.22 µM	Cc1ccc(Nc2cccc([C@]3(C)CC(=O)N([C@H]4C[C@@](O)(C(F)(F)F)C4)C(=N)N3)c2Cl)cn1 [Example 153, (6S)-6-{2-Chloro-3-[(6-methyl-pyridin-3-yl)amino]phenyl}-3-[3-hydroxy-3-(trifluoromethyl)-cyclobutyl]-2-imino-6-methyl-hexahydropyrimidin-4-one (trans isomer)]
0.884 µM	C[C@@]1(c2cccc(Nc3ccc(C4CC4)nc3)c2Cl)CC(=O)N([C@H]2C[C@](O)(C(F)(F)F)C2)C(=N)N1 [Example 154, (6S)-6-{2-Chloro-3-[(6-cyclo-propylpyridin-3-yl)amino]-phenyl}-3-[3-hydroxy-3-(trifluoromethyl)cyclobutyl]-2-imino-6-methylhexahydro-pyrimidin-4-one (cis isomer)]
0.764 µM	C[C@@]1(c2cccc(Nc3ccc(C(F)(F)F)cc3)c2Cl)CC(=O)N([C@H]2C[C@@](C)(O)C2)C(=N)N1 [Example 174, (6S)-6-{2-Chloro-3-[4-(trifluoromethyl)anilino]-phenyl}-3-(3-hydroxy-3-methyl-cyclobutyl)-2-imino-6-methyl-hexahydropyrimidin-4-one]
0.46 µM	C[C@@]1(c2cccc(Nc3ccc(Cl)cc3)c2Cl)CC(=O)N([C@H]2C[C@@](C)(O)C2)C(=N)N1 [Example 176, (6S)-6-[2-Chloro-3-(4-chloro-anilino)phenyl]-3-(3-hydroxy-3-methylcyclobutyl)-2-imino-6-methylhexahydropyrimidin-4-one]
2.45 µM	CC[C@]1(O)C[C@H](N2C(=N)N[C@](C)(c3cccc(Nc4ccc(F)cc4)c3Cl)CC2=O)C1 [Example 177, (6S)-6-[2-Chloro-3-(4-fluoro-anilino)phenyl]-3-(3-ethyl-3-hydroxycyclobutyl)-2-imino-6-methylhexahydropyrimidin-4-one (trans isomer)]
0.428 µM	CC[C@]1(O)C[C@@H](N2C(=N)N[C@](C)(c3cccc(Nc4ccc(F)cc4)c3Cl)CC2=O)C1 [Example 178, (6S)-6-[2-Chloro-3-(4-fluoro-anilino)phenyl]-3-(3-ethyl-3-hydroxycyclobutyl)-2-imino-6-methylhexahydropyrimidin-4-one (cis isomer)]
0.381 µM	C[C@@]1(c2cccc(Nc3ccc(F)cc3)c2Cl)CC(=O)N(C2CC(O)(C(F)(F)F)C2)C(=N)N1 [Example 179, (6S)-6-[2-Chloro-3-(4-fluoro-anilino)phenyl]-3-[3-hydroxy-3-(trifluoromethyl)cyclobutyl]-2-imino-6-methyl-hexahydro-pyrimidin-4-one (cis isomer)]

Source: patent US11479546B2, “Antimalarial hexahydropyrimidine analogues” (UCB Biopharma SRL, priority 2018, dated 2022)
